Data from PMC12446542, “Neddylation inhibitor MLN4924 enhances H3K18 lactylation via binding to LDH and downregulates ITGB4 to block metastasis” (The Journal of Biological Chemistry, 2025).
pKd: −log10 of the molar value.

Molecular target: T1, LDHA (Homo sapiens, UniProt P00338)
T1 construct: purified recombinant LDHA protein (CUSABIO, CSB-EP012832HU)
Assay: SPR (Biacore 8K, LDHA immobilized on CM5 chip, steady-state analysis); supported by CETSA in SK-BR-3 cells
Type: binding
From the text: SPR (Biacore 8K, LDHA immobilized on CM5 chip, steady-state analysis); supported by CETSA in SK-BR-3 cells on LDHA | using purified recombinant LDHA protein and MLN4924.

pKd: 4.45
SMILES: NS(=O)(=O)OC[C@@H]1C[C@@H](n2ccc3c(N[C@H]4CCc5ccccc54)ncnc32)C[C@@H]1O [MLN4924]
